{
  "source": "patent US8513161B2",
  "about": "“Enhancement of plant growth” (Valent Biosciences Corporation, priority 2007, dated 2013)",
  "key": {"soybean": {"tested_on": "soybean", "test": "Field study, seed treatment of soybean", "type": "in vivo", "conditions": "for average plant height of soybean: 66 days after planting, control 23.8", "experimental": "(§1) For the field studies, the seed was treated with a seed treatment formulation containing clothianidin. The rate of clothianidin was dependent on the crop species. The seed treatment formulations were amended with the appropriate concentrations of either PESA or the sodium salt of PESA. Crops were planted and grown under standard agricultural practices, and evaluated at the times indicated. The sodium salt of PESA was prepared as described above, and was used in seed treatment either alone or in the presence of clothianidin. Soybean seed was treated with 0 or 50 grams of clothianidin/100 kg (220 pound) of seed and with 0, 22, 55, or 137.5 grams PESA salt/100 kg seed."}, "cotton [1]": {"tested_on": "cotton", "test": "Continuous exposure pouch study, PESA salt and clothianidin on cotton", "type": "in vivo", "conditions": "for shoot length of cotton / root length of cotton: in pouch; for shoot length of cotton: control 6.1; for root length of cotton: control 11.4", "experimental": "(§2) Seeds were placed in germination pouches consisting of germination paper hydrated with sterile water that was an insert in a gas-permeable 16×14 cm plastic pouch (CYG Pouch; Mega International, St. Paul, Minn.). In these examples, in pouch solution evaluation, clothianidin and PESA sodium salt were added to the sterile water in the pouch. Alternatively, imidacloprid or dinotefuran and PESA sodium salt were added to the sterile water in the pouch. The pouches were arranged in a completely randomized block design in growth racks and placed in 19-liter polycarbonate food storage containers (Rubbermaid Commercial Products, Winchester, Va.). The sealed containers were held in an upright growth cabinet maintained at 25 C with a 12 hour light: 12 hour dark photoperiod. After 6 days, the containers were removed from the growth cabinet, and the lengths of the roots and shoot were measured."}, "sorghum": {"tested_on": "sorghum", "test": "Field study, seed treatment of sorghum", "type": "in vivo", "conditions": "for root dry weight of a sample of 10 sorghum plants: 73 days after planting, control 148.5", "experimental": "as §1, with “Sorghum” for “Soybean”, “200” for “50”"}, "maize": {"tested_on": "maize", "test": "Field study, seed treatment of maize", "type": "in vivo, Zea mays", "conditions": "27 days after planting, control 3.6", "experimental": "For the field studies, the seed was treated with a seed treatment formulation containing clothianidin. The rate of clothianidin was dependent on the crop species. The seed treatment formulations were amended with the appropriate concentrations of either PESA or the sodium salt of PESA. Crops were planted and grown under standard agricultural practices, and evaluated at the times indicated. The PESA or the sodium salt of PESA was prepared as described above, and was used in seed treatment either alone or in the presence of clothianidin. Maize (Zea mays) seed was treated with 0 or 0.25 milligrams of clothianidin/seed and with 0, 22, 55, or 137.5 grams PESA salt/100 kg seed."}, "cotton [2]": {"tested_on": "cotton", "test": "Pouch assay of cotton after PESA salt and clothianidin seed treatments", "type": "in vivo", "conditions": "seed treatment; for shoot length of cotton: control 3.7; for root length of cotton: control 9.6", "experimental": "(§3) Seed was sieved with a screen of hole size appropriate to remove broken seeds and small trash. Cracked or otherwise damaged seeds were removed. The seed was well mixed, and 50 g samples were weighed into small plastic trays. Seed treatment slurries were made by adding measured amounts of the active ingredients to sufficient water to bring them up to a standard volume, typically 2 ml. A fungicide (Maxim XL; Syngenta Agricultural Products, Greensboro, N.C.), a polymeric binder (CF-Clear; Becker-Underwood, Ames, Iowa), and a colorant (Color Coat Red; Becker-Underwood, Ames, Iowa) were also included in the slurry at label rates. A small aliquot of this slurry was applied to the seed using the Hege 11 coater (Wintersteiger, Salt Lake City, Utah) with a six-inch bowl. The slurry was deposited drop-wise on the spinning disk atomizer using a syringe.\nas §2"}, "cotton [3]": {"tested_on": "cotton", "test": "Continuous exposure pouch study, PESA salt and imidacloprid on cotton", "type": "in vivo", "conditions": "for shoot length of cotton / root length of cotton: in pouch; for shoot length of cotton: control 6.2; for root length of cotton: control 13.3", "experimental": "as §2, with “measured. […] Root lengths of the control and combination treatment of imidacloprid with 100 mg/liter PESA salt were similar.” for “measured.”"}, "rice": {"tested_on": "rice", "test": "Pouch study of rice, imidacloprid seed treatment with PESA salt solution in pouch", "type": "in vivo", "experimental": "as §3, §2\nRoot lengths of the control and combination treatment of 200 grams imidacloprid/100 pounds of seed with 50 mg/liter PESA salt were similar."}, "[4]": {"conditions": "sodium salt of PESA 22 g/100 kg seed alone"}, "[5]": {"conditions": "sodium salt of PESA 55 g/100 kg seed alone"}, "[6]": {"conditions": "sodium salt of PESA 137.5 g/100 kg seed alone"}, "[7]": {"conditions": "PESA salt 10 g/100 pounds of seed alone"}, "[8]": {"conditions": "PESA salt 25 g/100 pounds of seed alone"}},
  "note": "Where a name gives a salt, the structure may show the parent alone.",
  "data": [
    {"compound": "O=C(O)CCC(=O)NCCc1ccccc1", "note": "[PESA salt]", "values": [
      {"measurement": "average plant height of soybean", "setting": "soybean; [4]", "result": 23.8, "unit": "inches"},
      {"measurement": "average plant height of soybean", "setting": "soybean; [5]", "result": 23.5, "unit": "inches"},
      {"measurement": "average plant height of soybean", "setting": "soybean; [6]", "result": 23.2, "unit": "inches"},
      {"measurement": "safening of soybean", "setting": "soybean; conclusion from Table 9", "result": "safened soybean against clothianidin-induced root growth inhibition"},
      {"measurement": "safening of cotton", "setting": "cotton [1]; continuous exposure pouch, conclusion from Table 3", "result": "safened cotton against clothianidin-induced root growth inhibition"},
      {"measurement": "effect on cotton root length", "setting": "cotton [1]; continuous exposure pouch, substance alone", "result": "increased root length in a dose-dependent manner"},
      {"measurement": "effect on cotton shoot length", "setting": "cotton [1]; continuous exposure pouch, 300 mg/liter PESA salt alone", "result": "reduced"},
      {"measurement": "shoot length of cotton", "setting": "cotton [1]; PESA salt 10 mg/liter alone", "result": 6.3, "unit": "cm"},
      {"measurement": "root length of cotton", "setting": "cotton [1]; PESA salt 10 mg/liter alone", "result": 14.2, "unit": "cm"},
      {"measurement": "shoot length of cotton", "setting": "cotton [1]; PESA salt 30 mg/liter alone", "result": 6.1, "unit": "cm"},
      {"measurement": "root length of cotton", "setting": "cotton [1]; PESA salt 30 mg/liter alone", "result": 15.3, "unit": "cm"},
      {"measurement": "shoot length of cotton", "setting": "cotton [1]; PESA salt 100 mg/liter alone", "result": 6.0, "unit": "cm"},
      {"measurement": "root length of cotton", "setting": "cotton [1]; PESA salt 100 mg/liter alone", "result": 16.2, "unit": "cm"},
      {"measurement": "shoot length of cotton", "setting": "cotton [1]; PESA salt 300 mg/liter alone", "result": 5.4, "unit": "cm"},
      {"measurement": "root dry weight of a sample of 10 sorghum plants", "setting": "sorghum; [4]", "result": 183.5, "unit": "grams"},
      {"measurement": "root dry weight of a sample of 10 sorghum plants", "setting": "sorghum; [5]", "result": 146.5, "unit": "grams"},
      {"measurement": "root dry weight of a sample of 10 sorghum plants", "setting": "sorghum; [6]", "result": 141.6, "unit": "grams"},
      {"measurement": "safening of sorghum", "setting": "sorghum; conclusion from Table 10", "result": "safened sorghum against clothianidin-induced root growth inhibition"},
      {"measurement": "vigor rating of maize plants, Vigor (1-5)", "setting": "maize; PESA sodium salt 22 g/100 kg seed alone", "result": 3.8},
      {"measurement": "vigor rating of maize plants, Vigor (1-5)", "setting": "maize; PESA sodium salt 55 g/100 kg seed alone", "result": 3.5},
      {"measurement": "vigor rating of maize plants, Vigor (1-5)", "setting": "maize; PESA sodium salt 137.5 g/100 kg seed alone", "result": 3.4},
      {"measurement": "effect on cotton shoot length", "setting": "cotton [2]; Table 2", "result": "increased cotton shoot length"},
      {"measurement": "safening of cotton", "setting": "cotton [2]; conclusion from Table 1", "result": "safened cotton against clothianidin-induced root growth inhibition"},
      {"measurement": "shoot length of cotton", "setting": "cotton [2]; [7]", "result": 4.3, "unit": "cm"},
      {"measurement": "root length of cotton", "setting": "cotton [2]; [7]", "result": 8.8, "unit": "cm"},
      {"measurement": "shoot length of cotton", "setting": "cotton [2]; [8]", "result": 4.3, "unit": "cm"},
      {"measurement": "root length of cotton", "setting": "cotton [2]; [8]", "result": 10.6, "unit": "cm"},
      {"measurement": "safening of cotton", "setting": "cotton [3]; conclusion from Table 5", "result": "safened cotton against imidacloprid-induced root growth inhibition"},
      {"measurement": "shoot length of cotton", "setting": "cotton [3]; PESA salt 10 mg/liter alone", "result": 6.2, "unit": "cm"},
      {"measurement": "root length of cotton", "setting": "cotton [3]; PESA salt 10 mg/liter alone", "result": 14.6, "unit": "cm"},
      {"measurement": "shoot length of cotton", "setting": "cotton [3]; PESA salt 30 mg/liter alone", "result": 6.0, "unit": "cm"},
      {"measurement": "root length of cotton", "setting": "cotton [3]; PESA salt 30 mg/liter alone", "result": 16.9, "unit": "cm"},
      {"measurement": "shoot length of cotton", "setting": "cotton [3]; PESA salt 100 mg/liter alone", "result": 6.0, "unit": "cm"},
      {"measurement": "root length of cotton", "setting": "cotton [3]; PESA salt 100 mg/liter alone", "result": 16.5, "unit": "cm"},
      {"measurement": "shoot length of cotton", "setting": "cotton [3]; PESA salt 300 mg/liter alone", "result": 5.7, "unit": "cm"},
      {"measurement": "root length of cotton", "setting": "cotton [3]; PESA salt 300 mg/liter alone", "result": 11.9, "unit": "cm"},
      {"measurement": "shoot length of rice", "setting": "rice; PESA salt 50 mg/liter in pouch alone, control 3.3", "result": 3.6, "unit": "cm"},
      {"measurement": "root length of rice", "setting": "rice; PESA salt 50 mg/liter in pouch alone, control 10.7", "result": 12.0, "unit": "cm"},
      {"measurement": "safening of rice", "setting": "rice; conclusion from Table 7", "result": "safened, rice against imidacloprid-induced root growth inhibition"}
    ]}
  ]
}
